From patent US20240158446A1, “CYCLIC COMPOUND HAVING SELECTIVE INHIBITORY ACTION ON KRAS OVER HRAS AND NRAS” (CHUGAI SEIYAKU KABUSHIKI KAISHA, priority 2021, published 2024)
Where two headings read alike, the source gives them in different places.

Key:
[1] = target: GDP-bound KRAS wild-type protein (Homo sapiens, UniProt P01116); test: Binding to KRAS by surface plasmon resonance (SPR), Single Cycle Kinetics; conditions: SPR, Single Cycle Kinetics
[2] = target: GDP-bound NRAS wild-type protein (Homo sapiens, UniProt P01111); test: Binding to NRAS by surface plasmon resonance (SPR), Single Cycle Kinetics; conditions: SPR; for NRAS/KRAS (ratio of KD value for NRAS to KD value for KRAS): GDP-bound NRAS wild-type protein vs GDP-bound KRAS wild-type protein
[3] = target: GDP-bound HRAS wild-type protein (Homo sapiens, UniProt P01112); test: Binding to HRAS by surface plasmon resonance (SPR), Single Cycle Kinetics; conditions: SPR; for HRAS/KRAS (ratio of KD value for HRAS to KD value for KRAS): GDP-bound HRAS wild-type protein vs GDP-bound KRAS wild-type protein
[4] = tested on: human lung cancer strain NCI-H441; conditions: read-out: NCI-H441 cell proliferation inhibitory activity, 50% proliferation inhibitory concentration (IC50 value); NCI-H441, four days, CellTiter-Glo;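 also: cell proliferation inhibition after four days measured by CellTiter-Glo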
[5] = 1:1 binding model, read-out: KD value with respect to GDP-bound KRAS wild-type protein
[6] = GDP-bound KRAS wild-type protein, read-out: KRAS KD

Sequence of GDP-bound NRAS wild-type protein (P01111 whole entry): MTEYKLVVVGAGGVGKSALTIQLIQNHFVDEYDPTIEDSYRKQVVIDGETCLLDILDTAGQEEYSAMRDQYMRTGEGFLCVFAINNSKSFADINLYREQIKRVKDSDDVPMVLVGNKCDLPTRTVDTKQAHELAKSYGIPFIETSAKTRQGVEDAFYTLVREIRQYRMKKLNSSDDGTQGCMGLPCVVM
Sequence of GDP-bound HRAS wild-type protein (P01112 whole entry): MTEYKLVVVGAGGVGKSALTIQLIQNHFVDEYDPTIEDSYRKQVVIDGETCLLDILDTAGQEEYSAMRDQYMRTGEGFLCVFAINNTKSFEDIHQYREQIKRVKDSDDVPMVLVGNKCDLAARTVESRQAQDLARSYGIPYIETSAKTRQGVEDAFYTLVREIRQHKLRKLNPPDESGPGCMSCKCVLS
Sequence of GDP-bound KRAS wild-type protein (P01116 whole entry): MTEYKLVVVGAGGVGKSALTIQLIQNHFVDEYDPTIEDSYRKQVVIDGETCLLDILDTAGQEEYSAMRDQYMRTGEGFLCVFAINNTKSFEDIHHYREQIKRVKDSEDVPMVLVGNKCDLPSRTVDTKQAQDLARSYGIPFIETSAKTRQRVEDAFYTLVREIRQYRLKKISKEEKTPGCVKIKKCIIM

SMILES | Kd [1, 5] [nM] | Kd [1, 6] [nM] | NRAS/KRAS (ratio of KD value for NRAS to KD value for KRAS) [2] | ratio of the KD value with respect to GDP-bound NRAS wild-type protein to the KD value with respect to KRAS [2] | HRAS/KRAS (ratio of KD value for HRAS to KD value for KRAS) [3] | ratio of the KD value with respect to GDP-bound HRAS wild-type protein to the KD value with respect to KRAS [3] | IC50 [4] [nM]
CCC[C@H]1C(=O)N[C@@H]([C@@H](C)CC)C(=O)N(C2CC2)CC(=O)N(C)[C@H]2C/C=C\CCN(C2=O)[C@@H](Cc2ccc(C(F)(F)F)cc2)C(=O)N(C)CC(=O)N[C@@H](CCc2ccc(C(F)(F)F)c(OC)c2)C(=O)N2C[C@H](OCC)C[C@H]2C(=O)N(C)C2(CCC2)C(=O)N(C)[C@@H](C2CCCC2)C(=O)N(C)[C@H](C(=O)N2CCCCC2)CC(=O)N1C [PP3095, (2S,8S,12R,14S,20S,23S,27S,30S,36S,38Z)-20-cyclopentyl-32-cyclopropyl-12-ethoxy-8-[2-[3-methoxy-4-(trifluoromethyl)phenyl]ethyl]-4,16,19,22,26,35-hexamethyl-30-[(1S)-1-methylpropyl]-23-(piperidine-1-carbonyl)-27-propyl-2-[[4-(trifluoromethyl)phenyl]methyl]spiro[1,4,7,10,16,19,22,26,29,32,35-undecazatricyclo[34.5.1.0^10,14]dotetracont-38-ene-17,1′-cyclobutane]-3,6,9,15,18,21,25,28,31,34,42-undecone] | 0.67 | 0.67 | A (a compound having 10 or more and less than 20 is denoted as A) | A (a compound having 10 or more and less than 20 is denoted as A) | A (a compound having 10 or more and less than 20 is denoted as A) | A (a compound having 10 or more and less than 20 is denoted as A) | 33.7
CCC[C@H]1C(=O)N[C@@H]([C@@H](C)CC)C(=O)N(C2CC2)CC(=O)N(C)[C@H]2C/C=C\CCN(C2=O)[C@@H](Cc2ccc(C(F)(F)F)cc2)C(=O)N(C)CC(=O)N[C@@H](CCc2ccc(C(F)(F)F)c(OC)c2)C(=O)N2C[C@H](OCC)C[C@H]2C(=O)N(C)C2(CCC2)C(=O)N(C)[C@@H](C2CCCC2)C(=O)N(C)[C@H](C(=O)N2CCCC2)CC(=O)N1C [PP3097] | 0.38 | 0.38 | A (a compound having 10 or more and less than 20 is denoted as A) | A (a compound having 10 or more and less than 20 is denoted as A) | A (a compound having 10 or more and less than 20 is denoted as A) | A (a compound having 10 or more and less than 20 is denoted as A) | 5.4
CCC[C@H]1C(=O)N[C@@H]([C@@H](C)CC)C(=O)N(C2CC2)CC(=O)N(C)[C@H]2C/C=C\CCN(C2=O)[C@@H](Cc2ccc(C)cc2)C(=O)N(C)CC(=O)N[C@@H](CCc2ccc(C(F)(F)F)c(OC)c2)C(=O)N2C[C@H](OCC)C[C@H]2C(=O)N(C)C2(CCC2)C(=O)N(C)[C@@H](C2CCCC2)C(=O)N(C)[C@H](C(=O)N2CCCC2)CC(=O)N1C [PP3098, (2S,8S,12R,14S,20S,23S,27S,30S,36S,38Z)-20-cyclopentyl-32-cyclopropyl-12-ethoxy-8-[2-[3-methoxy-4-(trifluoromethyl)phenyl]ethyl]-4,16,19,22,26,35-hexamethyl-30-[(1S)-1-methylpropyl]-27-propyl-2-(p-tolylmethyl)-23-(pyrrolidine-1-carbonyl)spiro[1,4,7,10,16,19,22,26,29,32,35-undecazatricyclo[34.5.1.0^10,14]dotetracont-38-ene-17,1′-cyclobutane]-3,6,9,15,18,21,25,28,31,34,42-undecone] | 0.24 | 0.24 | A (a compound having 10 or more and less than 20 is denoted as A) | A (a compound having 10 or more and less than 20 is denoted as A) | A (a compound having 10 or more and less than 20 is denoted as A) | A (a compound having 10 or more and less than 20 is denoted as A) | 4.7
CCC[C@H]1C(=O)N[C@@H]([C@@H](C)CC)C(=O)N2CCC[C@H]2C(=O)N(C)[C@H]2C/C=C\CCN(C2=O)[C@@H](Cc2ccc(C(F)(F)F)cc2)C(=O)N(C)CC(=O)N[C@@H](CCc2ccc(C(F)(F)F)c(OC)c2)C(=O)N2C[C@H](OCC)C[C@H]2C(=O)N(C)C2(CCC2)C(=O)N(C)[C@@H](C2CCCC2)C(=O)N(C)[C@H](C(=O)N2CCCCC2)CC(=O)N1C [PP3099] | 0.61 | 0.61 | A (a compound having 10 or more and less than 20 is denoted as A) | A (a compound having 10 or more and less than 20 is denoted as A) | A (a compound having 10 or more and less than 20 is denoted as A) | A (a compound having 10 or more and less than 20 is denoted as A) | 13.3
CCC[C@H]1C(=O)N[C@@H]([C@@H](C)CC)C(=O)N2CCC[C@H]2C(=O)N(C)[C@H]2C/C=C\CCN(C2=O)[C@@H](Cc2ccc(C)cc2)C(=O)N(C)CC(=O)N[C@@H](CCc2ccc(C(F)(F)F)c(OC)c2)C(=O)N2C[C@H](OCC)C[C@H]2C(=O)N(C)C2(CCC2)C(=O)N(C)[C@@H](C2CCCC2)C(=O)N(C)[C@H](C(=O)N2CCCCC2)CC(=O)N1C [PP3100, (1S,4S,10S,13S,17S,20S,26S,28R,32S,38S,42Z)-20-cyclopentyl-28-ethoxy-32-[2-[3-methoxy-4-(trifluoromethyl)phenyl]ethyl]-2,14,18,21,24,36-hexamethyl-10-[(1S)-1-methylpropyl]-17-(piperidine-1-carbonyl)-13-propyl-38-(p-tolylmethyl)spiro[2,8,11,14,18,21,24,30,33,36,39-undecazatetracyclo[37.5.1.0^4,8.0^26,30]pentatetracont-42-ene-23,1′-cyclobutane]-3,9,12,15,19,22,25,31,34,37,45-undecone] | 0.29 | 0.29 | A (a compound having 10 or more and less than 20 is denoted as A) | A (a compound having 10 or more and less than 20 is denoted as A) | B (a compound having 3 or more and less than 10 is denoted as B) | B (a compound having 3 or more and less than 10 is denoted as B) | 15
CCC[C@H]1C(=O)N[C@@H]([C@@H](C)CC)C(=O)N2CCC[C@H]2C(=O)N(C)[C@H]2C/C=C\CCN(C2=O)[C@@H](Cc2ccc(C(F)(F)F)cc2)C(=O)N(C)CC(=O)N[C@@H](CCc2ccc(C(F)(F)F)c(OC)c2)C(=O)N2C[C@H](OCC)C[C@H]2C(=O)N(C)C2(CCC2)C(=O)N(C)[C@@H](C2CCCC2)C(=O)N(C)[C@H](C(=O)N2CCCC2)CC(=O)N1C [PP3101] | 0.27 | 0.27 | A (a compound having 10 or more and less than 20 is denoted as A) | A (a compound having 10 or more and less than 20 is denoted as A) | A (a compound having 10 or more and less than 20 is denoted as A) | A (a compound having 10 or more and less than 20 is denoted as A) | 4.9
